Experimental data published in patent publication US20240226055A1, “TREATMENT OF DISORDERS WITH TASIMELTEON” (Vanda Pharmaceuticals Inc., priority 2018, published 2024).

Legend:
[1] = Phase III clinical study of an 8-hour advance in usual bedtime (jet lag disorder circadian challenge); assay type: in vivo, human
Description: In the course of the trial, volunteers are subjected to a circadian challenge of an 8-hour advance in their usual bedtime, consistent with the circadian challenge induced in travelers crossing eight time zones (e.g., Los Angeles to London or Washington, DC to Moscow) and typically causing jet lag disorder.
The pre-specified primary endpoint used for this purpose is the amount of sleep time in the first two thirds of the night. Secondary endpoints include measures of various sleep parameters-total sleep time (TST), latency to persistent sleep (LPS), and wake after sleep onset (WASO)-as well as next day alertness, measured using the Karolinska Sleepiness Scale (KSS) and Visual Analog Scale (VAS).

[2] = Two-phase transatlantic travel study (jet lag, five or eight time zones); assay type: in vivo, human; details: for Objective TST2/3 Night 3, change from baseline: 20 mg for three consecutive nights prior to bedtime; for Objective TST2/3 Night 3, change from baseline / Objective TST2/3 All 3 nights, change from baseline: treated travel vs baseline observational travel
Description: A two-phase transatlantic travel study of 25 subjects (tasimelteon n=13, placebo n=12) comprises a first phase that is an observational travel study to collect baseline data, and a second phase that is a treatment phase. Participants in the study travel either five or eight time zones from Washington, DC to London (five time zones) or San Francisco or Los Angeles to London (eight time zones). Participants stay at their destination for three nights and four days and during randomization receive 20 mg of tasimelteon for three consecutive nights prior to their bedtime. Efficacy is monitored by PSG as well as sleep and wake questionnaire scales.
The primary endpoint of the study is TST for the first 2/3 of the night(s) most likely to be disrupted. These are, from Table 2, Night 3, followed by Night 1 and Night 2.
Measures of global function, including Patient Global Impression of Severity (PGI-S) and KSS also favor tasimeltcon.

[3] = 20 mg dose, 8-hour bedtime advance, difference from placebo
[4] = 20 mg dose, 8-hour bedtime advance, treatment group value
[5] = 8-hour phase advance, difference from placebo
[6] = 8-hour phase advance, treatment group value
[7] = 20 mg for three consecutive nights, Post-Sleep Questionnaire
[8] = 20 mg for three consecutive nights, difference from placebo
[9] = Post-Sleep Questionnaire, difference from placebo

Compound: CCC(=O)NC[C@@H]1C[C@H]1c1cccc2c1CCO2 [Hetlioz ®, tasimelteon]
- PSG TST2/3 (sleep time in first two thirds of the night, primary endpoint) ([1]; 20 mg dose, 8-hour bedtime advance, healthy volunteers, treatment group value): 216.4 min
- KSS (1-9) average, next day alertness ([1]; 20 mg dose, 8-hour bedtime advance, Karolinska Sleepiness Scale, treatment group value): 4.0
- VAS (0-100) average, next day alertness ([1]; 20 mg dose, 8-hour bedtime advance, Visual Analog Scale, treatment group value): 60.8
- KSS (1-9) average, Diff vs placebo [1, 3]: −0.53
- PSG LPS, Diff vs placebo [1, 3]: -15.08 min
- PSG TST2/3, Diff vs placebo [1, 3]: 60.31 min
- PSG TSTfull, Diff vs placebo [1, 3]: 85.46 min
- PSG WASO, Diff vs placebo [1, 3]: -74.58 min
- VAS (0-100) average, Diff vs placebo [1, 3]: 6.59
- PSG TSTfull, Diff vs placebo ([1]; 20 mg dose, 8-hour bedtime advance, difference from placebo, listed as tasimelteon): 85 min
- PSG LPS (latency to persistent sleep) [1, 4]: 21.8 min
- PSG TSTfull (total sleep time) [1, 4]: 315.8 min
- PSG WASO (wake after sleep onset) [1, 4]: 144.6 min
- PSG REMTotal, Difference vs placebo [1, 5]: 13.7 min
- REMAccumulate, Difference vs placebo [1, 5]: -53.3 min
- REMAchieved, Difference vs placebo [1, 5]: 24.5%
- PSG REMTotal (total REM sleep period) [1, 6]: 48.9 min
- REMAccumulate (time required to accumulate 30 minutes of REM sleep) [1, 6]: 318.7 min
- REMAchieved [1, 6]: 76.1%
- Objective TST2/3 Night 3, change from baseline ([2]; listed as HETLIOZ ®): 76.2 min
- Objective TST2/3 Night 3, change from baseline ([2]; listed as Tasimelteon): 76 min
- Global measures KSS Day 4, change from baseline ([2]; 20 mg for three consecutive nights, Karolinska Sleepiness Scale): −1.69
- Global measures PGI-S Day 3, change from baseline ([2]; 20 mg for three consecutive nights, Patient Global Impression of Severity): −0.71
- Subjective Sleep Latency Night 3, change from baseline [2, 7]: −20.6
- Subjective Sleep Quality Night 3, change from baseline [2, 7]: 1.31
- Subjective TSTFull All 3 Nights, change from baseline [2, 7]: 240.0
- Subjective TSTFull Night 3, change from baseline [2, 7]: 111.9
- Subjective WASO Night 3, change from baseline [2, 7]: −81.1
- Objective TST2/3 All 3 nights, change from baseline, Difference vs placebo [2, 8]: 90.6 min
- Objective TST2/3 Night 3, change from baseline, Difference vs placebo [2, 8]: 34.8 min
- Objective TST2/3 All 3 nights, change from baseline ([2]; 20 mg for three consecutive nights, listed as HETLIOZ ®): 131.4 min
- Objective TST2/3 All 3 nights, change from baseline ([2]; 20 mg for three consecutive nights, listed as Tasimelteon): 131 min
- Global measures KSS Day 4, change from baseline, Difference vs placebo ([2]; Karolinska Sleepiness Scale, difference from placebo): −1.00
- Global measures PGI-S Day 3, change from baseline, Difference vs placebo ([2]; Patient Global Impression of Severity, difference from placebo): −0.63
- Subjective Sleep Latency Night 3, change from baseline, Difference vs placebo [2, 9]: −26.5
- Subjective Sleep Quality Night 3, change from baseline, Difference vs placebo [2, 9]: 0.95
- Subjective TSTFull All 3 Nights, change from baseline, Difference vs placebo [2, 9]: 174.9
- Subjective TSTFull Night 3, change from baseline, Difference vs placebo [2, 9]: 78.5
- Subjective WASO Night 3, change from baseline, Difference vs placebo [2, 9]: −56.4
